From patent US20130131161A1, “METHODS AND COMPOSITIONS FOR CARDIOVASCULAR DISEASES AND CONDITIONS” (priority 2009, published 2013)

System: Human umbilical vein endothelial cells (HUVECs)
Assay: eNOS activity analysis: NO, ONOO− and NO/ONOO− release from HUVECs of 50 genotyped donors in response to LA-419 (Example 2)
Type: cell-based
Details: for % Change ONOO− (mean ± sd) / % Change NO (mean ± sd) / % Change NO/ONOO− (mean ± sd): LA-419 5 μM vs control; for Fold difference NO production / Fold difference NO/ONOO− ratio: LA-419 5 μM/control; for % Change Ratio, % Change NO/% Change ONOO− (mean ± sd) / Net increase over control NO (mean ± sd) / Net increase over control NO/ONOO− (mean ± sd) / Net increase over control ONOO− (mean ± sd) / Peak release NO (mean ± sd) / Peak release NO/ONOO− (mean ± sd) / Peak release ONOO− (mean ± sd): LA-419 5 μM
Method: Concurrent measurements of NO and ONOO^− were carried out with tandem electrochemical nanosensors combined into one working unit with a total diameter of 200-500 nm (FIG. 1). Their design was based on previously developed and well-characterized chemically modified carbon-fiber technology (Malinski and Taha, 1992; Lvovich and Scheeline, 1997). Each of the nanosensors was made by depositing a sensing material on the tip of a carbon fiber (length 4-5 μm, diameter 0.2-0.5 μm). The fibers were sealed with nonconductive epoxy and electrically connected to copper wires with conductive silver epoxy. A conductive film of polymeric nickel (II) tetrakis(3-methoxy-4-hydroxyphenyl)porphyrin for the NO-sensor and polymeric film of Mn (III) [2.2]paracyclophanylporphyrin was used for the ONOO^−-sensor.
A module of NO/ONOO^− nanosensors (diameter 1-2 μm) with a platinum wire (0.1 mm) counter electrode and saturated calomel reference electrode (SCE) were applied. Differential pulse voltammetry (DPV) and amperometry were performed with a computer-based Gamry VFP600 multichannel potentiostat. DPV was used to measure the basal NO and ONOO^− concentrations, and amperometry was used to measure changes in NO and ONOO^− concentrations from its basal level with time. The DPV current at the peak potential characteristic for NO oxidation (0.65 V) and ONOO^− reduction (−0.45 V) was directly proportional to the local concentrations of these compounds in the immediate vicinity of the sensor. Linear calibration curves (current vs. concentration) were constructed for each sensor from 10 nM to 3 μM before and after measurements with aliquots of NO and ONOO^− standard solutions, respectively. The detection limit of the sensors was 1.0 nM.
The quantification of each analyte (concentration in nM) was performed using a maximum current from amperograms and standard calibration curves. A reproducibility of measurements with nanosensors is relatively high (between 5-12%). […] The sensors were slowly raised 5±2 μm from the surface of a single endothelial cell. The eNOS agonist, calcium ionophore A23187 (CaI) as well as the different drugs were then added to the surrounding media at the cell surface with a nanoinjector that was also positioned by a computer controlled-micromanipulator.
This example describes the genotype-specific response of the three major eNOS variants to 1 μM and 5 μM concentrations of LA-419. The three major genetic polymorphisms studied were the Glu298Asp variant (E298D or 894G→T) in exon 7 of […], the −786T→C variant in the promoter region, and the intron 4 polymorphism (VNTR). All of these variants have possible effects on the cardiovascular system and endothelial dysfunction. For this study, human umbilical vein endothelial cells (HUVECs) from 50 donors between 18 and 32 years of age were used.
For the analysis several analysis techniques were employed. First, the effect of genotype on NO and ONOO^− release was explored within the different concentrations of LA-419 (control, 1 μM, 5 μM), calculated as the average peak release (nmols/L) of NO, ONOO^−, and NO/ONOO^−. The effect of genotype on the net increase in NO, ONOO^−, and NO/ONOO^− for LA-419 (1 μM and 5 μM) as compared to control was also measured. In addition, an analysis was done on the effect of genotype on the % change in NO, ONOO^−, and NO/ONOO^− production for LA-419 (1 μM and 5 μM), calculated as:
% Change=[(avg. LA-419−avg. control)/(avg. control)]*100
Finally, an evaluation was undertaken concerning the effect of genotype on the production of NO, ONOO^−, and NO/ONOO^− as the fold difference of control for LA-419 (1 μM and 5 μM), calculated as:
Fold Difference=(avg. LA-419)/(avg. control)
Within each calculation technique the results were compared for statistical significance using a non-parametric ANOVA Kruskal-Wallace test or a non-parametric Mann-Whitney U test. Statistical significance was set at a p-value <0.05 in a two-tailed distribution. […]

[1] = Caucasians, exon 7 major allele homozygote
[2] = Caucasians, exon 7 minor allele carriers
[3] = exon 7 major allele homozygote, all races
[4] = exon 7 minor allele carriers, all races
[5] = HUVECs G894T + T-786C Combination of all genotypes other than G/G + T/T
[6] = HUVECs G894T + T-786C variant G/G + T/C
[7] = HUVECs G894T + T-786C variant G/G + T/T (Reference)
[8] = HUVECs G894T + T-786C variant G/T + C/C
[9] = HUVECs G894T + T-786C variant G/T + T/C
[10] = HUVECs G894T + T-786C variant G/T + T/T
[11] = HUVECs G894T + T-786C variant T/T + C/C
[12] = HUVECs G894T + T-786C variant T/T + T/C

Structure (SMILES): CC(=O)SC1COC2C(O[N+](=O)[O-])COC12 (stereo not drawn) [LA-419, S-(6-Nitro-oxi-hexahydro-furo[3,2-b]furan-3-1-il)thioacetate]
- % Change ONOO− (mean ± sd) (HUVECs Intron 4 variant b/a): −19.70 (5.79) %
- % Change NO (mean ± sd) (HUVECs Intron 4 variant b/b): 13.52 (6.80) %
- % Change NO/ONOO− (mean ± sd) (HUVECs Intron 4 variant b/b): 42.24 (17.73) %
- % Change ONOO− (mean ± sd) (HUVECs Intron 4 variant b/b): −19.19 (7.76) %
- % Change NO (mean ± sd) (HUVECs Intron 4 variant c/c): 17.36 (0) %
- % Change NO/ONOO− (mean ± sd) (HUVECs Intron 4 variant c/c): 52.87 (0) %
- % Change ONOO− (mean ± sd) (HUVECs Intron 4 variant c/c): −22.99 (0) %
- % Change NO (mean ± sd) (HUVECs T-786C variant C/C): 11.63 (5.99) %
- % Change NO/ONOO− (mean ± sd) (HUVECs T-786C variant C/C): 42.33 (13.21) %
- % Change ONOO− (mean ± sd) (HUVECs T-786C variant C/C): −21.03 (7.77) %
- % Change NO (mean ± sd) (HUVECs T-786C variant T/C): 13.58 (6.82) %
- % Change NO/ONOO− (mean ± sd) (HUVECs T-786C variant T/C): 38.74 (13.67) %
- % Change ONOO− (mean ± sd) (HUVECs T-786C variant T/C): −17.73 (5.53) %
- % Change NO (mean ± sd) (HUVECs T-786C variant T/T): 16.16 (5.97) %
- % Change NO/ONOO− (mean ± sd) (HUVECs T-786C variant T/T): 49.09 (17.76) %
- % Change ONOO− (mean ± sd) (HUVECs T-786C variant T/T): −20.98 (8.19) %
- Fold difference NO production [1]: 1.19±0.07
- Fold difference NO/ONOO− ratio [1]: 1.47±0.12
- Fold difference NO production [2]: 1.11±0.05
- Fold difference NO/ONOO− ratio [2]: 1.35±0.10
- Fold difference NO production (Caucasians, promoter major allele variant): 1.17±0.08
- Fold difference NO production [3]: 1.16±0.06
- Fold difference NO/ONOO− ratio [3]: 1.48±0.18
- Fold difference NO production [4]: 1.13±0.06
- Fold difference NO/ONOO− ratio [4]: 1.39±0.13
- % Change Ratio, % Change NO/% Change ONOO− (mean ± sd) (HUVEC donor Race Asian): −0.50 (0)
- % Change Ratio, % Change NO/% Change ONOO− (mean ± sd) (HUVEC donor Race Black): −0.79 (0.44)
- % Change Ratio, % Change NO/% Change ONOO− (mean ± sd) (HUVEC donor Race Not Reported): −0.59 (0.08)
- Net increase over control NO (mean ± sd) [5]: 46.78 (22.38) nmols/L
- Net increase over control NO/ONOO− (mean ± sd) [5]: −0.87 (0.81)
- Net increase over control ONOO− (mean ± sd) [5]: −68.74 (26.87) nmols/L
- Peak release NO (mean ± sd) [5]: 398.12 (90.43) nmols/L
- Peak release NO/ONOO− (mean ± sd) [5]: 1.43 (0.54)
- Peak release ONOO− (mean ± sd) [5]: 304.95 (81.70) nmols/L
- Net increase over control NO (mean ± sd) [6]: 51.58 (25.77) nmols/L
- Net increase over control NO/ONOO− (mean ± sd) [6]: −0.78 (0.51)
- Net increase over control ONOO− (mean ± sd) [6]: −66.54 (26.77) nmols/L
- Peak release NO (mean ± sd) [6]: 397.25 (102.46) nmols/L
- Peak release NO/ONOO− (mean ± sd) [6]: 1.56 (0.60)
- Peak release ONOO− (mean ± sd) [6]: 277.33 (69.85) nmols/L
- Net increase over control NO (mean ± sd) [7]: 56.59 (19.21) nmols/L
- Net increase over control NO/ONOO− (mean ± sd) [7]: −0.88 (0.54)
- Net increase over control ONOO− (mean ± sd) [7]: −77.59 (31.16) nmols/L
- Peak release NO (mean ± sd) [7]: 399.67 (56.96) nmols/L
- Peak release NO/ONOO− (mean ± sd) [7]: 1.48 (0.48)
- Peak release ONOO− (mean ± sd) [7]: 293.93 (83.07) nmols/L
- Net increase over control NO (mean ± sd) [8]: 46.00 (0) nmols/L
- Net increase over control NO/ONOO− (mean ± sd) [8]: −1.01 (0)
- Net increase over control ONOO− (mean ± sd) [8]: −45.67 (0) nmols/L
- Peak release NO (mean ± sd) [8]: 434.33 (0) nmols/L
- Peak release NO/ONOO− (mean ± sd) [8]: 1.72 (0)
- Peak release ONOO− (mean ± sd) [8]: 252.67 (0) nmols/L
- Net increase over control NO (mean ± sd) [9]: 43.72 (19.86) nmols/L
- Net increase over control NO/ONOO− (mean ± sd) [9]: −0.83 (0.84)
- Net increase over control ONOO− (mean ± sd) [9]: −65.59 (20.60) nmols/L
- Peak release NO (mean ± sd) [9]: 387.90 (86.10) nmols/L
- Peak release NO/ONOO− (mean ± sd) [9]: 1.34 (0.54)
- Peak release ONOO− (mean ± sd) [9]: 318.33 (82.55) nmols/L
- Net increase over control NO (mean ± sd) [10]: 52.83 (20.89) nmols/L
- Net increase over control NO/ONOO− (mean ± sd) [10]: −1.29 (1.15)
- Net increase over control ONOO− (mean ± sd) [10]: −71.50 (46.74) nmols/L
- Peak release NO (mean ± sd) [10]: 433.58 (65.75) nmols/L
- Peak release NO/ONOO− (mean ± sd) [10]: 1.71 (0.21)
- Peak release ONOO− (mean ± sd) [10]: 252.92 (13.69) nmols/L
- Net increase over control NO (mean ± sd) [11]: 35.33 (20.27) nmols/L
- Net increase over control NO/ONOO− (mean ± sd) [11]: −0.36 (0.18)
- Net increase over control ONOO− (mean ± sd) [11]: −94.89 (10.87) nmols/L
- Peak release NO (mean ± sd) [11]: 348.78 (92.48) nmols/L
- Peak release NO/ONOO− (mean ± sd) [11]: 1.19 (0.80)
- Peak release ONOO− (mean ± sd) [11]: 345.56 (123.07) nmols/L
- Net increase over control NO (mean ± sd) [12]: 53.00 (50.91) nmols/L
- Net increase over control NO/ONOO− (mean ± sd) [12]: −1.41 (1.74)
- Net increase over control ONOO− (mean ± sd) [12]: −64.83 (44.08) nmols/L
- Peak release NO (mean ± sd) [12]: 453.00 (178.19) nmols/L
- Peak release NO/ONOO− (mean ± sd) [12]: 1.23 (0.75)
- Peak release ONOO− (mean ± sd) [12]: 397.67 (96.64) nmols/L
- % Change Ratio, % Change NO/% Change ONOO− (mean ± sd) (HUVECs G894T variant G/G): −0.82 (0.40)
- Net increase over control NO (mean ± sd) (HUVECs G894T variant G/G): 55.05 (21.03) nmols/L
- Net increase over control NO/ONOO− (mean ± sd) (HUVECs G894T variant G/G): −0.85 (0.52)
- Net increase over control ONOO− (mean ± sd) (HUVECs G894T variant G/G): −74.19 (29.80) nmols/L
- Peak release NO (mean ± sd) (HUVECs G894T variant G/G): 398.92 (71.74) nmols/L
- Peak release NO/ONOO− (mean ± sd) (HUVECs G894T variant G/G): 1.50 (0.51)
